The test concerns the target T1, Human factor D (Homo sapiens, UniProt P00746).
T1 construct: Human factor D (purified from human serum, Complement Technology, Inc.); purchased Complement Technology, Inc; host or cells: human serum
The experiment in a line: Human Factor D Assay. It counts as biochemical. To be noted: Human factor D 80 nM, substrate Z-L-Lys-SBzl, DTNB. Here is the method: The assay of Example 8 was used to determine the IC50's of the compounds. Other standard factor D inhibition assays are also available.
Human factor D (purified from human serum, Complement Technology, Inc.) at 80 nM final concentration is incubated with test compound at various concentrations for 5 minutes at room temperature in 50 mM Tris, 1M NaCl, pH 7.5. A synthetic substrate Z-L-Lys-SBzl and DTNB (Ellman's reagent) are added to final concentrations of 100 μM each. The increase in color is recorded at OD405 nm in a microplate in kinetic mode over 30 minutes with 30 second time points in a spectrofluorimeter. IC50 values are calculated by non-linear regression from the percentage of inhibition of complement factor D activity as a function of test compound concentration.

This is an account of results in patent US20160362433A1, “ETHER COMPOUNDS FOR TREATMENT OF COMPLEMENT MEDIATED DISORDERS” (Achillion Pharmaceuticals, Inc., priority 2014, published 2016).

T1 sequence (P00746 26-253): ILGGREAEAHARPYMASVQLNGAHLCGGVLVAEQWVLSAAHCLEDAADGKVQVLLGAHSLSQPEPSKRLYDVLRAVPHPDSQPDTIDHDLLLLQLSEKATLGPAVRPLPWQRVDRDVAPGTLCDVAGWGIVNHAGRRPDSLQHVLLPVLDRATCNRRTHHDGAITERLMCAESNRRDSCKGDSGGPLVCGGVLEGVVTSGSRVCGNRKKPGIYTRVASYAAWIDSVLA

For the compound `CC(=O)c1cn(CC(=O)N2C[C@H](F)C[C@H]2C(=O)NCc2cccc(Cl)c2F)c2cc(OCc3cc4ccc3CCc3ccc(cc3)CC4)ccc12` [Compound 6, (2S,4R)-1-(2-(3-acetyl-6-((tricyclo[8.2.2.2^4,7]hexadeca-4,6,10,12,13,15-hexaen-5-ylmethyl)oxy)-1H-indol-1-yl)acetyl)-N-(3-chloro-2-fluorobenzyl)-4-fluoropyrrolidine-2-carboxamide], the IC50 lay within 1 to 10 µM.
